Measurements from patent US10654818B2, “Furane derivatives as inhibitors of ATAD2” (BAYER PHARMA AKTIENGESELLSCHAFT, priority 2015, dated 2020).

target: T1, recombinant, N-terminally GST-tagged ATAD2 bromodomain amino acids 981-1108 (Homo sapiens, UniProt Q6PL18); experiment: TR-FRET assay: disruption of the interaction between ATAD2 and acetylated Histone H4 (Ac-H4) peptide; format: binding; conditions: inhibition of ATAD2/Ac-H4 complex formation; 10 nM ATAD2, 50 nM Ac-H4 peptide
T1 construct: ATAD2 bromodomain amino acids 981-1108; made in house; host or cells: E. coli
T1 sequence (Q6PL18 981-1108): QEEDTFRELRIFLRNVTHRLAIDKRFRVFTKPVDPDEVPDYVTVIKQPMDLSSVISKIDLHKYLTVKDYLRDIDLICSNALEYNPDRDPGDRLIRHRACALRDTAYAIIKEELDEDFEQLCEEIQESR
Description: The ability of the compounds described in the present invention to disrupt the interaction between ATAD2 and acetylated Histone H4 (Ac-H4) was used as quantitative measure of their ATAD2-binding affinities.
To this end a TR-FRET assay which detects the binding of an Ac-H4-derived synthetic peptide (purchased from e.g. Biosyntan (Berlin, Germany)) of sequence HSGRGKGGGGKGLGK(Ac)GGAKRHRK-Biotin to recombinant, N-terminally GST-tagged ATAD2 bromodomain amino acids 981-1108. The protein was produced in-house via E. coli expression followed by GSH-Sepharose affinity- and Superdex S200-size exclusion chromatography purification.
Typically, 11 different concentrations of each compound (0.1 nM, 0.33 nM, 1.1 nM, 3.8 nM, 13 nM, 44 nM, 0.15 μM, 0.51 μM, 1.7 μM, 5.9 μM and 20 μM) were tested in duplicate within the same microtiter plate. To this end, 100-fold concentrated compound solutions (in DMSO) were previously prepared with a Precision Pippeting System (BioTek) by serial dilution (1:3.4) of 2 mM stocks in clear, low-volume 384-well microtiter source plates (Greiner Bio-One). Subsequently, 50 nl of compounds were transferred into black, low-volume test plates from the same supplier using a Hummingbird capillary based liquid handling instrument (Digilab). Tests were started by the addition of 2 μl of 2.5-fold concentrated ATAD2 solution (25 nM=10 nM final concentration in the 5 μl assay volume) in aqueous assay buffer [50 mM HEPES pH 7.5, 50 mM potassium fluoride (KF), 100 mM sodium chloride (NaCl), 0.25 mM CHAPS, 0.05% bovine serum albumine (BSA) and 1 mM dithiothreitol (DTT)] to the compounds in the test plate with a Multidrop dispenser (Thermo-Fisher). Test plates were then incubated 10′ at 22° C., in order to allow pre-equilibration of putative compound-ATAD2 complexes. Subsequently, 3 μl of a 1.67-fold concentrated solution containing Ac-H4 peptide (83.5 nM=50 nM final concentration) and TR-FRET detection reagents [16.7 nM Anti-GST-XL665 (Cisbio), =10 nM final concentration and 4.17 nM Lance EU W-1024 Streptavidin Europium Chelate (Perkin-Elmer)=2.5 nM final concentration were dispensed into the plates.
The mixture was further incubated in the dark for 1 hour at 22° C. Finally the inhibition of the formation of ATAD2/Ac-H4 complexes was assessed by measurement of the resonance energy transfer from the Streptavidin-Eu-Chelate to the anti-GST-XL665 antibody present in the reaction. To this end, the fluorescence emissions at 622 nm and 665 nm after excitation at 337 nm were measured in a TR-FRET reader, e.g. a Rubystar or Pherastar (both from BMG Lab Technologies) or a Viewlux (Perkin-Elmer) and the ratio of the emissions at 665 nm and at 622 nm was taken as indicator for the amount of ATAD2/Ac-H4 complexes in equilibrium.
The data were normalized using two sets of control wells (16 each). The first accounted for 100% ATAD2/Ac-H4 binding (0% inhibition), and contained all reaction components but DMSO instead of inhibitors. The second represented 0% ATAD2/Ac-H4 binding (100% inhibition), and included all assay components except ATAD2. IC50 values were calculated by fitting the normalized inhibition data to a 4-parameter logistic equation using either Screener software (Genedata) or a Bayer-proprietary analysis software.

SMILES | IC50
Cc1ccc([C@@H](C)NCc2ccc(-c3ccc(Cl)c(C(=O)N[C@@H](CNC4CCNC(C)(C)C4)Cc4ccc(C#N)cc4)c3)o2)cc1 (mixture of isomers) [Example 68] | 109 nM
Cc1ccc([C@@H](C)NCc2ccc(-c3ccc(Cl)c(C(=O)N[C@@H](CN[C@H]4CC[C@@H](N)CC4)Cc4ccc(C#N)cc4)c3)o2)cc1 (single isomer, unassigned) [Example 72] | 138 nM
Cc1ccc([C@@H](C)NCc2ccc(-c3ccc(Cl)c(C(=O)N[C@H]4CNCC[C@H]4c4ccc(C#N)cc4)c3)o2)cc1 (stereo in doubt) [Example 76, Cis-chloro-N-[4-(4-cyanophenyl)piperidin-3-yl]-5-[5-({[(1R)-1-(4-methylphenyl)-ethyl]amino}methyl)-2-furyl]benzamide] | 441 nM
Cc1ccc([C@@H](C)NCc2ccc(-c3ccc(Cl)c(C(=O)N[C@@H](CC(=O)N(C)C)Cc4ccc(C#N)cc4)c3)o2)cc1 [Example 1, 2-Chloro-N-[(2R)-1-(4-cyanophenyl)-4-(dimethylamino)-4-oxobutan-2-yl]-5-[5-({[(1R)-1-(4-methylphenyl)ethyl]amino}methyl)furan-2-yl]benzamide] | 740 nM
Cc1ccc([C@@H](C)NCc2ccc(-c3ccc(Cl)c(C(=O)N[C@H](Cc4ccc(C#N)cc4)C(N)=O)c3)o2)cc1 [Example 2, Nα-{2-chloro-5-[5-({[(1R)-1-(4-methylphenyl)ethyl]amino}methyl)-2-furyl]benzoyl}-4-cyano-D-phenylalaninamide] | 949 nM
Cc1ccc([C@@H](C)NCc2ccc(-c3ccc(Cl)c(C(=O)N[C@@H](CC(N)=O)Cc4ccc(C#N)cc4)c3)o2)cc1 [Example 3, N-[(2R)-4-amino-1-(4-cyanophenyl)-4-oxobutan-2-yl]-2-chloro-5-[5-({[(1R)-1-(4-methylphenyl)ethyl]amino}methyl)furan-2-yl]benzamide] | 927 nM
CNC(=O)[C@@H](Cc1ccc(C#N)cc1)NC(=O)c1cc(-c2ccc(CN[C@H](C)c3ccc(C)cc3)o2)ccc1Cl [Example 5, Nα-{2-chloro-5-[5-({[(1R)-1-(4-methylphenyl)ethyl]amino}methyl)furan-2-yl]benzoyl}-4-cyano-N-methyl-D-phenylalaninamide] | 1890 nM
Cc1ccc([C@@H](C)NCc2ccc(-c3ccc(Cl)c(C(=O)N[C@@H](CC(=O)N4CCOCC4)Cc4ccc(C#N)cc4)c3)o2)cc1 [Example 10, 2-chloro-N-[(2R)-1-(4-cyanophenyl)-4-(morpholin-4-yl)-4-oxobutan-2-yl]-5-[5-({[(1R)-1-(4-methylphenyl)ethyl]amino}methyl)-2-furyl]benzamide] | 674 nM
Cc1ccc([C@@H](C)NCc2ccc(-c3ccc(Cl)c(C(=O)N[C@@H](CC(=O)N4CCN(C)CC4)Cc4ccc(C#N)cc4)c3)o2)cc1 [Example 11, 2-chloro-N-[(2R)-1-(4-cyanophenyl)-4-(4-methylpiperazin-1-yl)-4-oxobutan-2-yl]-5-[5-({[(lR)-1-(4-methylphenyl)ethyl]amino}methyl)-2-furyl]benzamide] | 822 nM
Cc1ccc([C@@H](C)NCc2ccc(-c3ccc(Cl)c(C(=O)N[C@@H](CCO)Cc4ccc(C#N)cc4)c3)o2)cc1 [Example 13, 2-chloro-N-[(2R)-1-(4-cyanophenyl)-4-hydroxybutan-2-yl]-5-[5-({[(1R)-1-(4-methylphenyl)ethyl]amino}methyl)-2-furyl]benzamide] | 386 nM
COC[C@@H](Cc1ccc(C#N)cc1)NC(=O)c1cc(-c2ccc(CN[C@H](C)c3ccc(C)cc3)o2)ccc1Cl [Example 14, 2-chloro-N-[(2R)-1-(4-cyanophenyl)-3-methoxypropan-2-yl]-5-[5-({[(1R)-1-(4-methylphenyl)ethyl]amino}methyl)-2-furyl]benzamide] | 891 nM
COC(=O)[C@@H](Cc1ccc(C#N)cc1)NC(=O)c1cc(-c2ccc(CN[C@H](C)c3ccc(C)cc3)o2)ccc1Cl [Example 15, methyl N-{2-chloro-5-[5-({[(1R)-1-(4-methylphenyl)ethyl]amino}methyl)-2-furyl]benzoyl}-4-cyano-D-phenylalaninate] | 812 nM
Cc1ccc([C@@H](C)NCc2ccc(-c3ccc(Cl)c(C(=O)N[C@H](Cc4ccc(C#N)cc4)[C@H](C)O)c3)o2)cc1 [Example 17, 2-chloro-N-[(2R,3S)-1-(4-cyanophenyl)-3-hydroxybutan-2-yl]-5-[5-({[(1R)-1-(4-methylphenyl)ethyl]amino}methyl)-2-furyl]benzamide] | 341 nM
Cc1ccc([C@@H](C)NCc2ccc(-c3ccc(Cl)c(C(=O)N[C@@H](CO)Cc4ccc(I)cc4)c3)o2)cc1 [Example 18, 2-chloro-N-[(2R)-1-hydroxy-3-(4-iodophenyl)propan-2-yl]-5-[5-({[(1R)-1-(4-methylphenyl)ethyl]amino}methyl)-2-furyl]benzamide] | 1130 nM

More lines, in order of falling IC50, values ahead:

IC50 | SMILES
898 nM | Cc1ccc([C@@H](C)NCc2ccc(-c3ccc(Cl)c(C(=O)N[C@@H](CC(=O)NCCCO)Cc4ccc(C#N)cc4)c3)o2)cc1 [Example 8, 2-chloro-N-{(2R)-1-(4-cyanophenyl)-4-[(3-hydroxypropyl)amino]-4-oxobutan-2-yl}-5-[5-({[(1R)-1-(4-methylphenyl)ethyl]amino}methyl)-2-furyl]benzamide]
832 nM | Cc1ccc([C@@H](C)NCc2ccc(-c3ccc(Cl)c(C(=O)N[C@@H](CC(=O)NCCO)Cc4ccc(C#N)cc4)c3)o2)cc1 [Example 7, 2-chloro-N-{(2R)-1-(4-cyanophenyl)-4-[(2-hydroxyethyl)amino]-4-oxobutan-2-yl}-5-[5-({[(1R)-1-(4-methylphenyl)ethyl]amino}methyl)-2-furyl]benzamide]
749 nM | Cc1ccc([C@@H](C)NCc2ccc(-c3ccc(Cl)c(C(=O)N[C@@H](CC(=O)N4CCCC4)Cc4ccc(C#N)cc4)c3)o2)cc1 [Example 9, 2-chloro-N-[(2R)-1-(4-cyanophenyl)-4-oxo-4-(pyrrolidin-1-yl)butan-2-yl]-5-[5-({[(1R)-1-(4-methylphenyl)ethyl]amino}methyl)-2-furyl]benzamide]
668 nM | Cc1ccc([C@@H](C)NCc2ccc(-c3ccc(Cl)c(C(=O)N[C@H](Cc4ccc(C#N)cc4)C(C)(C)O)c3)o2)cc1 [Example 12, 2-chloro-N-[(2R)-1-(4-cyanophenyl)-3-hydroxy-3-methylbutan-2-yl]-5-[5-({[(1R)-1-(4-methylphenyl)ethyl]amino}methyl)-2-furyl]benzamide]
656 nM | Cc1ccc([C@@H](C)NCc2ccc(-c3ccc(Cl)c(C(=O)N[C@@H](CC(=O)NC(C)C)Cc4ccc(C#N)cc4)c3)o2)cc1 [Example 6, 2-chloro-N-[(2R)-1-(4-cyanophenyl)-4-(isopropylamino)-4-oxobutan-2-yl]-5-[5-({[(1R)-1-(4-methylphenyl)ethyl]amino}methyl)-2-furyl]benzamide]
640 nM | Cc1ccc(C(C)NCc2ccc(-c3ccc(Cl)c(C(=O)N[C@@H](Cc4ccc(C#N)cc4)c4ncc[nH]4)c3)o2)cc1 (stereo in doubt) [Example 19, 2-chloro-N-[2-(4-cyanophenyl)-1-(1H-imidazol-2-yl)ethyl]-5-[5-({[(1S)-1-(4-methylphenyl)ethyl]amino}methyl)-2-furyl]benzamide]
570 nM | Cc1ccc([C@@H](C)NCc2ccc(-c3ccc(Cl)c(C(=O)N[C@H](Cc4ccc(C#N)cc4)[C@@H](C)O)c3)o2)cc1 [Example 16, 2-chloro-N-[(2R,3R)-1-(4-cyanophenyl)-3-hydroxybutan-2-yl]-5-[5-({[(1R)-1-(4-methylphenyl)ethyl]amino}methyl)-2-furyl]benzamide]
